Values quoted from earlier work as cited in US20210169075A1, “ANTIBIOFILM FORMULATIONS AND METHODS FOR MICROBIAL DECONTAMINATION” (priority 2019, published 2021).
In brackets after ≈: the same amount, converted by molar mass.

Details: aqueous

solubility concentration: 4.09 µg/mL (≈ 30 µM)
Compound: C=CC(=C)CCC=C(C)C [Myrcene, myrcene]
